Like-named read-outs stand apart in the source and are kept apart here.
Tested on: C. parvum strain UGA1
Experiment: C. parvum growth inhibition assay (Nluc luminescence in HCT-8 cells)
Assay type: cell-based, Cryptosporidium parvum
Conditions: for EC50: C. parvum growth inhibition in HCT-8 cells, 48 hours, 6 concentrations 10-0.04 μM; for inhibition at 1 µM / inhibition at 10 µM: HCT-8; for inhibition at 1 µM: read-out: % inh @ 1 uM C. parvum; for inhibition at 10 µM: read-out: % inh @ 10 uM C. parvum
[1] = Cryptosporidium parvum, HCT-8, 48 h
[2] = Cryptosporidium parvum, single point inhibition at 1 uM
[3] = Cryptosporidium parvum, single point inhibition at 10 uM
[4] = Cryptosporidium parvum, single point inhibition @ 1 uM
[5] = Cryptosporidium parvum, single point inhibition @ 10 uM

`Cc1ccc(-c2cc3cnc(NC(=O)C4CC4)cc3n2C)nc1` [Example 347, N-(1-methyl-2-(5-methylpyridin-2-yl)-1H-pyrrolo[3,2-c]pyridin-6-yl)cyclopropanecarboxamide] was tested, and the EC50 [1] was > 1 µM.
For `Cn1ccc(-c2cc3cnc(NC(=O)C4CC4)cc3n2C)n1` [Example 345, N-(1-methyl-2-(1-methyl-1H-pyrazol-3-yl)-1H-pyrrolo[3,2-c]pyridin-6-yl)cycloproapnecarboxamide], the EC50 [1] was > 1 µM.
Work on `O=C(Nc1cc2[nH]c(-c3ccncc3)cc2cn1)C1CCCCC1` [Example 217, N-(2-(pyridin-4-yl)-1H-pyrrolo[3,2-c]pyridin-6-yl)cyclohexanecarboxamide] yielded an inhibition at 1 µM [2] of 0 to 33% and an inhibition at 10 µM [3] of 33 to 66%.
`Cc1cn(C)nc1C(=O)Nc1cc2[nH]c(-c3ccncc3)cc2cn1` [Example 281, 1,4-dimethyl-N-(2-(pyridin-4-yl)-1H-pyrrolo[3,2-c]pyridin-6-yl)-1H-pyrazole-3-carboxamide] gave an inhibition at 1 µM [2] of 0 to 33% and an inhibition at 10 µM [3] of 0 to 33%.
`CC(C)n1cc(C(=O)Nc2cc3[nH]c(-c4ccnc(OCCF)n4)cc3cn2)cn1` [Example 146, N-(2-(2-(2-fluoroethoxy)pyrimidin-4-yl)-1H-pyrrolo[3,2-c]pyridin-6-yl)-1-isopropyl-1H-pyrazole-4-carboxamide] was tested, and the inhibition at 1 µM [4] was 0 to 33% and the inhibition at 10 µM [5] was 67 to 100%.
In the case of `Cc1nccc(-c2cc3cnc(NC4CCOCC4)cc3n2C)n1` [Example 378, 1-methyl-2-(2-methylpyrimidin-4-yl)-N-(tetrahydro-2H-pyran-4-yl)-1H-pyrrolo[3,2-c]pyridin-6-amine], the EC50 [1] was > 1 µM.
`FC(F)(F)c1c[nH]c2cc(NC3CCOCC3)ncc12` [Example 376, N-(tetrahydro-2H-pyran-4-yl)-3-(trifluoromethyl)-1H-pyrrolo[3,2-c]pyridin-6-amine] was tested, and the EC50 [1] was > 1 µM.
With `Cc1nn(C)cc1C(=O)Nc1cc2[nH]c(-c3ccnc(OC(C)C(F)(F)F)n3)cc2cn1` (stereo in doubt) [Example 136, (S)-1,3-dimethyl-N-(2-(2-(1,1,1-trifluoropropan-2-yloxy)pyrimidin-4-yl)-1H-pyrrolo[3,2-c]pyridin-6-yl)-1H-pyraozle-4-carboxamide] the inhibition at 1 µM [4] was 0 to 33% and the inhibition at 10 µM [5] was 67 to 100%.
Work on `Cn1cc(C(=O)Nc2cc3[nH]c(-c4ccnc(C#N)c4)cc3cn2)cn1` [Example 239, N-(2-(2-cyanopyridin-4-yl)-1H-pyrrolo[3,2-c]pyridin-6-yl)-1-methyl-1H-pyrazole-4-carboxamide] yielded an inhibition at 1 µM [2] of 0 to 33% and an inhibition at 10 µM [3] of 33 to 66%.
For `Cc1cc(Nc2cc3[nH]c(-c4cccnc4)cc3cn2)cc(-n2cncn2)c1` [Example 337, N-(3-methyl-5-(1H-1,2,4-triazol-1-yl)phenyl)-2-(pyridin-3-yl)-1H-pyrrolo[3,2-c]pyridin-6-amine], the inhibition at 1 µM [2] was 0 to 33% and the inhibition at 10 µM [3] was 0 to 33%.
Molecule `COc1nccc(-c2cc3cnc(NC(=O)c4cnn(C(C)C)c4)cc3n2C)n1` [Example 309, 1-isopropyl-N-(2-(2-methoxypyrimidin-4-yl)-1-methyl-1H-pyrrolo[3,2-c]pyridin-6-yl)-1H-pyrazole-4-carboxamide] has an inhibition at 1 µM [2] of 0 to 33% and an inhibition at 10 µM [3] of 0 to 33%.
Work on `Cc1cc(-c2cc3cnc(NC(=O)OC4CCCC4)cc3[nH]2)ccn1` [Example 170, cyclopentyl 2-(2-methylpyridin-4-yl)-1H-pyrrolo[3,2-c]pyridin-6-ylcarbamate] yielded an inhibition at 1 µM [4] of 0 to 33% and an inhibition at 10 µM [5] of 67 to 100%.
With `CC(C)n1cc(C(=O)Nc2cc3[nH]c(-c4ccnc(OCCC(F)(F)F)n4)cc3cn2)cn1` [Example 175, 1-isopropyl-N-(2-(2-(3,3,3-trifluoropropoxy)pyrimidin-4-yl)-1H-pyrrolo[3,2-c]pyridin-6-yl)-1H-pyrazole-4-carboxamide] the inhibition at 1 µM [4] was 0 to 33% and the inhibition at 10 µM [5] was 67 to 100%.
Molecule `O=C(Nc1cc2[nH]c(-c3ccc(F)cn3)cc2cn1)C1CC1` [Example 268, N-(2-(5-fluoropyridin-2-yl)-1H-pyrrolo[3,2-c]pyridin-6-yl)cyclopropanecarboxamide] has an inhibition at 1 µM [2] of 0 to 33% and an inhibition at 10 µM [3] of 0 to 33%.
For `COc1nccc(-c2cc3cnc(NC(=O)c4cnn(CC5CCOC5)c4C)cc3[nH]2)n1` (stereo in doubt) [Example 179, (S)-N-(2-(2-methoxypyrimidin-4-yl)-1H-pyrrolo[3,2-c]pyridin-6-yl)-5-methyl-1-((tetrahydrofuran-3-yl)methyl)-1H-pyrazole-4-carboxamide], the inhibition at 1 µM [4] was 0 to 33% and the inhibition at 10 µM [5] was 67 to 100%.
`Cc1cc(-c2cc3cnc(NC(=O)c4cnn(C5CCOC5)c4)cc3[nH]2)ccn1` (stereo not shown) [Example 236, N-(2-(2-methylpyridin-4-yl)-1H-pyrrolo[3,2-c]pyridin-6-yl)-1-(tetrahydrofuran-3-yl)-1H-pyrazole-4-carboxamide] showed an inhibition at 1 µM [2] of 33 to 66% and an inhibition at 10 µM [3] of 33 to 66%.
`COc1cc(Nc2cc3[nH]c(C#N)cc3cn2)cc(C2CCOCC2)c1` [Example 148, 6-(3-methoxy-5-(tetrahydro-2H-pyran-4-yl)phenylamino)-1H-pyrrolo[3,2-c]pyridine-2-carbonitrile] showed an inhibition at 1 µM [4] of 0 to 33% and an inhibition at 10 µM [5] of 67 to 100%.
For `CCOc1nccc(-c2cc3cnc(NC(=O)CC4COC4)cc3[nH]2)n1` [Example 139, N-(2-(2-ethoxypyrimidin-4-yl)-1H-pyrrolo[3,2-c]pyridin-6-yl)-2-(oxetan-3-yl)acetamide], the inhibition at 1 µM [4] was 0 to 33% and the inhibition at 10 µM [5] was 67 to 100%.
Work on `c1cc(Nc2cc3[nH]c(-c4cccnc4)cc3cn2)cc(-c2nc[nH]n2)c1` [Example 272, N-(3-(1H-1,2,4-triazol-3-yl)phenyl)-2-(pyridin-3-yl)-1H-pyrrolo[3,2-c]pyridin-6-amine] yielded an inhibition at 1 µM [2] of 0 to 33% and an inhibition at 10 µM [3] of 0 to 33%.
`COc1nccc(-c2cc3cnc(NC(=O)c4cnn(C)c4)cc3n2C)n1` [Example 256, N-(2-(2-methoxypyrimidin-4-yl)-1-methyl-1H-pyrrolo[3,2-c]pyridin-6-yl)-1-methyl-1H-pyrazole-4-carboxamide] gave an inhibition at 1 µM [2] of 0 to 33% and an inhibition at 10 µM [3] of 0 to 33%.
`COCc1cc2cnc(NC(=O)c3cnn(C)c3)cc2[nH]1` [Example 260, N-(2-(methoxymethyl)-1H-pyrrolo[3,2-c]pyridin-6-yl)-1-methyl-1H-pyrazole-4-carboxamide] was tested, and the inhibition at 1 µM [2] was 0 to 33% and the inhibition at 10 µM [3] was 0 to 33%.
In the case of `Cn1cnc(-c2cc3cnc(NC(=O)C4CC4)cc3[nH]2)c1` [Example 60, N-(2-(1-methyl-1H-imidazol-4-yl)-1H-pyrrolo[3,2-c]pyridin-6-yl)cyclopropanecarboxamide], the EC50 [1] was > 1 µM.
`Cc1cc(-c2cc3cnc(NC4CCCOC4)cc3[nH]2)ccn1` (stereo in doubt) [Example 356, (R)-2-(2-methylpyridin-4-yl)-N-(tetrahydro-2H-pyran-3-yl)-1H-pyrrolo[3,2-c]pyridin-6-amine] was tested, and the EC50 was < 0.5 µM.
`COc1nccc(-c2cc3cnc(NC(=O)c4cn(C)nc4C)cc3[nH]2)n1` [Example 250, N-(2-(2-methoxypyrimidin-4-yl)-1H-pyrrolo[3,2-c]pyridin-6-yl)-1,3-dimethyl-1H-pyrazole-4-carboxamide] showed an inhibition at 1 µM [2] of 0 to 33% and an inhibition at 10 µM [3] of 0 to 33%.
In the case of `Cc1cc2cnc(NC(=O)c3cnn(C)c3)cc2[nH]1` [Example 285, 1-methyl-N-(2-methyl-1H-pyrrolo[3,2-c]pyridin-6-yl)-1H-pyrazole-4-carboxamide], the inhibition at 1 µM [2] was 0 to 33% and the inhibition at 10 µM [3] was 0 to 33%.
`Cc1cc(-c2cc3cnc(NC4CCOC4)cc3[nH]2)ccn1` (stereo in doubt) [Example 52, (S)-2-(2-methylpyridin-4-yl)-N-(tetrahydrofuran-3-yl)-1H-pyrrolo[3,2-c]pyridin-6-amine] was tested, and the EC50 [1] was > 1 µM.
`Cn1c(-c2ccnc(NCC(F)(F)F)n2)cc2cnc(NC(C)(C)C)cc21` [Example 384, N-tert-butyl-1-methyl-2-(2-(2,2,2-trifluoroethylamino)pyrimidin-4-yl)-1H-pyrrolo[3,2-c]pyridin-6-amine] was tested, and the EC50 [1] was > 1 µM.
For `FC(F)(F)CNc1nccc(-c2cc3cnc(NC4CCOC4)cc3[nH]2)n1` (stereo in doubt) [Example 366, (R)-N-(tetrahydrofuran-3-yl)-2-(2-(2,2,2-trifluoroethylamino)pyrimidin-4-yl)-1H-pyrrolo[3,2-c]pyridin-6-amine], the EC50 [1] was < 0.5 µM.
Molecule `CC(C)CNc1cc2[nH]c(-c3cccnc3)cc2cn1` [Example 273, N-isobutyl-2-(pyridin-3-yl)-1H-pyrrolo[3,2-c]pyridin-6-amine] has an inhibition at 1 µM [2] of 0 to 33% and an inhibition at 10 µM [3] of 0 to 33%.
`c1ccc(Nc2cc3[nH]c(-c4ccccc4)cc3cn2)cc1` [Example 271, N,2-diphenyl-1H-pyrrolo[3,2-c]pyridin-6-amine] was tested, and the inhibition at 1 µM [2] was 0 to 33% and the inhibition at 10 µM [3] was 0 to 33%.
With `Cc1ncc(-c2cc3cnc(NC(=O)c4cnn(C)c4)cc3[nH]2)o1` [Example 267, 1-methyl-N-(2-(2-methyloxazol-5-yl)-1H-pyrrolo[3,2-c]pyridin-6-yl)-1H-pyrazole-4-carboxamide] the inhibition at 1 µM [2] was 0 to 33% and the inhibition at 10 µM [3] was 0 to 33%.
In the case of `CCOc1nccc(-c2cc3cnc(NC(=O)c4cnn(C)c4)cc3[nH]2)n1` [Example 293, N-(2-(2-ethoxypyrimidin-4-yl)-1H-pyrrolo[3,2-c]pyridin-6-yl)-1-methyl-1H-pyrazole-4-carboxamide], the inhibition at 1 µM [2] was 0 to 33% and the inhibition at 10 µM [3] was 0 to 33%.
Molecule `FC(F)(F)CNc1nccc(-c2cc3cnc(NC4CCC4)cc3[nH]2)n1` [Example 373, N-cyclobutyl-2-(2-(2,2,2-trifluoroethylamino)pyrimidin-4-yl)-1H-pyrrolo[3,2-c]pyridin-6-amine] has an EC50 [1] of 0.5 to 1 µM.
With `COc1cccc(Nc2cc3[nH]c(-c4cnn(C)c4)cc3cn2)c1` [Example 197, N-(3-methoxyphenyl)-2-(1-methyl-1H-pyrazol-4-yl)-1H-pyrrolo[3,2-c]pyridin-6-amine] the inhibition at 1 µM [4] was 0 to 33% and the inhibition at 10 µM [5] was 67 to 100%.

— US20240124444A1 (Celgene Corporation, priority 2020, published 2024)
